Experiments:
Format in all cases: biochemical
Cdc25A = molecular target: T1, Cdc25A (Homo sapiens, UniProt P30304); assay: Cdc25A phosphatase inhibition screen at 50 μM; details: read-out: Percent Inhibition at 50 uM compound, Cdc25 A
T1 sequence (P30304 1-524): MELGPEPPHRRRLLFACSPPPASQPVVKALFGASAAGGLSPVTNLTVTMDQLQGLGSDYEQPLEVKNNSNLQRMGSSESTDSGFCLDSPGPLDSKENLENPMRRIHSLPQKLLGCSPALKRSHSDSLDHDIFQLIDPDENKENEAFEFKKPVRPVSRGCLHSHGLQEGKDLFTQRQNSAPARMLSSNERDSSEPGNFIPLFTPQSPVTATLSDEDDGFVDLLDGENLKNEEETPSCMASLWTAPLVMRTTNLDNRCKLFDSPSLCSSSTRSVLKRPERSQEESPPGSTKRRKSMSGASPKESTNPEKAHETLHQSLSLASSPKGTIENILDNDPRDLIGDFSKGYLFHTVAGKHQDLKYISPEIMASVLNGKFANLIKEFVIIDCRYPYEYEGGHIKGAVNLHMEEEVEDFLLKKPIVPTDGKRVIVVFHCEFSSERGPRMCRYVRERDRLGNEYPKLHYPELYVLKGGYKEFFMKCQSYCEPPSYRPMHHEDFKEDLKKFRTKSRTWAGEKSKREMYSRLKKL
Experimental: (§1) Using procedures known to those skilled in the art, the compounds listed in Table 3 were screened against Cdc25A, Cdc25B, and Cdc25C at 50 μM. […] To analyze these effects further, the compounds were then screened against Cdc25B in a 3 pt. IC-50, using 1, 7 and 50 μM. Several of the compounds were also screened with an 8 pt. IC-50 process, using 0.1–10 μM, allowing determination of Hill slopes.

Cdc25B = molecular target: T2, Cdc25B (Homo sapiens, UniProt P30305); assay: Cdc25B phosphatase inhibition (50 μM screen, 3 pt. and 8 pt. IC-50); details: for IC50: Cdc25B, 3 pt. IC-50 using 1, 7 and 50 μM, read-out: IC50 (3 pt); for inhibition at 50 µM: read-out: Percent Inhibition at 50 uM compound, Cdc25 B
T2 sequence (P30305 1-580): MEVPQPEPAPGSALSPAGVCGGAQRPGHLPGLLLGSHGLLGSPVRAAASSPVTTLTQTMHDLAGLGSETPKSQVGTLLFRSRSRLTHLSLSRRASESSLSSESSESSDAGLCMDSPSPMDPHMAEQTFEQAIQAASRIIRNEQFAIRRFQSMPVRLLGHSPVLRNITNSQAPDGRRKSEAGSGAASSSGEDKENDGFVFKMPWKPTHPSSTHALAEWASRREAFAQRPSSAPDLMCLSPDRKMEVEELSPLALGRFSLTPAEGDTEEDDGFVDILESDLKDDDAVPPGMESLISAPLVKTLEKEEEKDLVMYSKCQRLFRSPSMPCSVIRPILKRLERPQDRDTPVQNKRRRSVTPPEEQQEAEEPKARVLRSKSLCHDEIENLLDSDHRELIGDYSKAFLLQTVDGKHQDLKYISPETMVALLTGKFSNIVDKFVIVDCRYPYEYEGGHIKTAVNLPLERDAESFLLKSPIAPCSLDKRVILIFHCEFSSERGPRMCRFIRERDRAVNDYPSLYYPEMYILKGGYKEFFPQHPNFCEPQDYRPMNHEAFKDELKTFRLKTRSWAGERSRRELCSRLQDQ
Experimental: as §1

Cdc25C = molecular target: T3, Cdc25C (Homo sapiens, UniProt P30307); assay: Cdc25C phosphatase inhibition screen at 50 μM; details: read-out: Percent Inhibition at 50 uM compound, Cdc25 C
T3 sequence (P30307 1-473): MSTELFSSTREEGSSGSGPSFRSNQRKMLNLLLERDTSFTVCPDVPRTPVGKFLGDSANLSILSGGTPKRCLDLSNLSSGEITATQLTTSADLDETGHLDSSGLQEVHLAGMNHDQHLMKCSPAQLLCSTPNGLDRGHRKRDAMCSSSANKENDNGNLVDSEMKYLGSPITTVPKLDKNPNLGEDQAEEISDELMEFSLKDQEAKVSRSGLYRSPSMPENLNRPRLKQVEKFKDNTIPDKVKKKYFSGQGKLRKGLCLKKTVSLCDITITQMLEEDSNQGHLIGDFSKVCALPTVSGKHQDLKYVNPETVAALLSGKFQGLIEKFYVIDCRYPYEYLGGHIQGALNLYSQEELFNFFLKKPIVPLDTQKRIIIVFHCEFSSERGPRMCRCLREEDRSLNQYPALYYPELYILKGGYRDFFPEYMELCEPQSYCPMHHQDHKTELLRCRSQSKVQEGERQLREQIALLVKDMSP
Experimental: as §1

Row | Compound | inhibition at 50 µM (Cdc25A) [%] | IC50 (Cdc25B) [µM] | inhibition at 50 µM (Cdc25B) [%] | inhibition at 50 µM (Cdc25C) [%]
1 | COc1cc2[nH]cc(C3=C(O)C(=O)C=C(O)C3=O)c2cc1OC [8A, 2,5-dihydroxy-3-(5,6-dimethoxy-1H-indol-3-yl)-[1,4]-benzoquinone] | 39 | 117 | 19 | 20
2 | Cc1ccc2c(C3=C(O)C(=O)C=C(O)C3=O)c[nH]c2c1C [8B, 2,5-dihydroxy-3-(6,7-dimethyl-1H-indol-3-yl)-[1,4]-benzoquinone] | 90 | 12.8 | 32 | 20
3 | O=C1C=C(O)C(=O)C(c2c[nH]c3c2ccc2ccccc23)=C1O [8C, 2,5-dihydroxy-3-(1H-benzo[g]indol-3-yl)-[1,4]-benzoquinone] | 98 | 2.8 | 79 | 75

Source: patent publication US7057052B2, “Heterocyclic quinones as pharmaceutical agents” (Duke University, priority 2002, dated 2006)
